Assay results as given in PubChem BioAssay (NCI).
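These data come from cells grown in 96-well plates and exposed to compound for 48 hours at five concentrations. GI50 is the concentration that inhibits growth by half. TGI is the concentration that stops growth completely.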

Tests used:
Test in all cases: DTP human tumour cell line panel, 48 h
786-0 renal = tested on: 786-0 renal
A498 renal = tested on: A498 renal
CCRF-CEM leukemia = tested on: CCRF-CEM leukemia
COLO 205 colon = tested on: COLO 205 colon
HOP-92 NSCLC = tested on: HOP-92 NSCLC
NCI-H460 lung = tested on: NCI-H460 lung
SF-268 CNS = tested on: SF-268 CNS
SK-MEL-2 melanoma = tested on: SK-MEL-2 melanoma
SN12C renal = tested on: SN12C renal
U251 CNS = tested on: U251 CNS

Row | SMILES | GI50 (786-0 renal) [µM] | TGI (786-0 renal) [µM] | GI50 (A498 renal) [µM] | TGI (A498 renal) [µM] | GI50 (CCRF-CEM leukemia) [µM] | TGI (CCRF-CEM leukemia) [µM] | GI50 (COLO 205 colon) [µM] | TGI (COLO 205 colon) [µM] | GI50 (HOP-92 NSCLC) [µM] | TGI (HOP-92 NSCLC) [µM] | GI50 (NCI-H460 lung) [µM] | TGI (NCI-H460 lung) [µM] | GI50 (SF-268 CNS) [µM] | TGI (SF-268 CNS) [µM] | GI50 (SK-MEL-2 melanoma) [µM] | TGI (SK-MEL-2 melanoma) [µM] | GI50 (SN12C renal) [µM] | TGI (SN12C renal) [µM] | GI50 (U251 CNS) [µM] | TGI (U251 CNS) [µM]
1 | COc1ccc2c(c1)OC(N)=C(C#N)C2c1ccc(F)c(F)c1 (stereo not drawn) | 0.595 | > 96.6 | 0.231 | 5.96 | 0.409 | > 100 | 0.437 | 5.2 | 6.53 | 69.3 | 0.41 | 41.6 | 0.754 | > 65.4 | 0.343 | > 93.7 | 0.718 | > 70.6 | 0.425 | > 45.5
2 | CCCCN(CCCC)C(=O)C(=O)C(C(=O)C(=O)OC)c1nc2ccccc2o1 (stereo not drawn) | – | > 100 | – | > 100 | – | > 100 | – | > 100 | – | > 100 | – | > 100 | – | > 100 | – | > 100 | – | > 100 | – | > 100
3 | O=C1NC(=N[C@@H]2C[C@H]2c2ccccc2)S/C1=C\c1ccc2ncccc2c1 | 2.27 | 6.01 | 0.613 | 4.48 | 1.31 | > 25 | 0.813 | 2.35 | 3.68 | 10.1 | 1.32 | 6.79 | 2.25 | 8.02 | 4 | 9.55 | 1.68 | > 25 | 0.875 | 6.94
4 | O=C(O)COc1ccc2c3c1C(=O)CCC3CO2 (stereo not drawn) | – | > 100 | – | > 100 | – | > 100 | – | > 100 | – | > 100 | – | > 100 | – | > 100 | – | > 100 | – | > 100 | – | > 100
5 | Cc1cc2c(=O)cc(-c3ccc(C(=O)O)cc3)oc2c(C(N)=O)c1C | – | > 100 | – | > 100 | – | > 100 | – | > 100 | – | > 100 | – | > 100 | – | > 100 | – | > 100 | – | > 100 | – | > 100
6 | Cc1cc(C)c2c(=O)cc(-c3ccc(F)cc3)[nH]c2n1 | 78.8 | > 100 | – | 99.5 | – | > 100 | – | > 100 | – | 90.3 | 51.6 | > 100 | – | > 100 | – | > 100 | – | > 100 | 95.1 | > 100
7 | O=[N+]([O-])c1cccc(C=NC23CC4CC(CC(C4)C2)C3)c1 | – | > 100 | – | > 100 | – | > 100 | – | > 100 | – | > 100 | – | > 100 | – | > 100 | – | > 100 | – | > 100 | – | > 100
8 | COC(=O)CCC(=O)C(CC(=O)OC)C(=O)CCC(=O)NCCc1ccccc1 (stereo not drawn) | – | > 100 | – | > 100 | – | > 100 | – | > 100 | – | > 100 | – | > 100 | – | > 100 | – | > 100 | – | > 100 | – | > 100
9 | CNC(=O)N(CCCC(NC(C)=O)C(=O)NCc1ccccc1)Cc1ccccc1 (stereo not drawn) | – | > 100 | – | > 100 | – | > 100 | – | > 100 | – | > 100 | – | > 100 | – | > 100 | – | > 100 | – | > 100 | – | > 100
10 | CCOC(=O)c1cc2c(OC)cc(OC)cc2oc1=O | – | > 100 | – | > 100 | – | > 100 | – | > 100 | – | > 100 | – | > 100 | – | > 100 | – | > 100 | – | > 100 | – | > 100
11 | NS(=O)(=O)c1ccc(N=Nc2c(O)[nH]c3cccc(CCc4ccncc4)c23)cc1 | > 25 | > 25 | > 25 | > 25 | > 25 | > 25 | > 25 | > 25 | > 25 | > 25 | > 25 | > 25 | > 25 | > 25 | > 25 | > 25 | > 25 | > 25 | > 25 | > 25
12 | c1ccc2c(CNCCCN3CCN(CCCNCc4cccc5ccccc45)CC3)cccc2c1 | – | 4.18 | – | 22.9 | – | 3 | – | 3.85 | – | 4.65 | – | 2.81 | – | 6.11 | – | 3.02 | – | 13.5 | – | 3.16
13 | CCOC(=O)Nc1ccc2c3c(cccc13)-c1ccccc1-2 | 8 | > 100 | 4.68 | > 100 | 7.85 | > 100 | 4.25 | > 100 | > 100 | > 100 | 3.99 | > 100 | 33.3 | > 100 | > 100 | > 100 | 5.98 | > 100 | 5.52 | > 100
